Measured values: paper PMC12657321, “Pre-clinical evaluation of a potent and effective Pin1-degrading agent in pancreatic cancer” (Molecular Therapy Oncology, 2025)
Non-standard residues stand in square brackets, D forms with d. Residues, ends and D or L forms follow the SMILES beside them. *: point of attachment. Trp(6-Cl) = N[C@@H](Cc1c[nH]c2cc(Cl)ccc12)C(=O)O; Pip = O=C(O)[C@@H]1CCCCN1; ClAc = O=C(CCl)*

Tests used:
[1] = biological target: Pin1 in BxPC3 cells (Homo sapiens, UniProt Q13526); assay: Pin1 degradation by western blot in BxPC3 cells; format: cell-based; set-up: endogenous in cells; host or cells: BxPC3, MIA PaCa-2; settings: BxPC3, 0.5-15 μM for 24 h, Pin1 relative to β-actin
Method: (§1) To ascertain that the plasma-stable agent 164B8 retained its ability to induce Pin1 degradation in cells, we tested it in three pancreatic cancer cell lines—human BxPC3 and MIA PaCa-2, and the mouse pancreatic cancer cell line KPC—using western blot analysis (Figure 2).
(§2) Figure 2 Degradation of Pin1 in different cell lines in response to 164B8 treatment BxPC3, MIA PaCa-2, and KPC were each treated with 0.1% DMSO and concentrations of 164B8 ranging between 0.5 and 15 μM for 24 h, and Pin1 levels were quantified with respect to β-actin using a specific anti-Pin1 antibody and western blotting (uncropped blots are reported in Figure S6).
(§3) At the end of the treatments, cells were lysed with a lysis buffer containing 20 mM Tris (pH 7.4), 1% Triton X-100, 5 mM EDTA, 0.1% sodium dodecyl sulfate (SDS), 1% IGEPAL, 0.5% sodium deoxycholate, 120 mM NaCl, and a protease inhibitor cocktail and PhosSTOP (Sigma-Aldrich). Lysates were then centrifuged at 16,000 × g for 20 min at 4°C, and the supernatants were collected. Protein concentrations were determined using the Pierce BCA Protein Assay Kit (Thermo Fisher Scientific) according to the manufacturer’s protocol. For traditional western blotting (Figure 2), samples were loaded onto precast Bis-Tris gels and subsequently transferred onto PVDF membranes. […]

[2] = biological target: T1, Pin1 in MIA PaCa-2 cells (Homo sapiens, UniProt Q13526); assay: Pin1 degradation by western blot in MIA PaCa-2 cells; format: cell-based; settings: MIA PaCa-2, 0.5-15 μM for 24 h, Pin1 relative to β-actin
T1 construct: endogenous in cells; host or cells: BxPC3, MIA PaCa-2
Method: as §1, §2, §3

[3] = Stability in plasma from esterase-deficient (ES1e) mice; format: in vitro ADME; settings: mouse, 37°C, up to 6 h, acetonitrile quench, LC-MS/MS
Method: (§4) A solution of a Pin1 inhibitor was spiked into blank plasma at 1 μg/mL in various solutions, including an aqueous buffer (1× phosphate-buffered saline; Fisher Scientific, Fair Lawn, NJ), human plasma (Innovative Research Inc., Novi, MI), wild-type mouse plasma (Innovative Research Inc., Novi, MI), plasma form esterase-deficient mice (City of Hope, Duarte, CA), and plasma from Black 6-Cg mice (City of Hope, Duarte, CA).
(§5) The spiked plasma samples were incubated at 37°C for up to 6 h. At each designated time point, a 20 μL aliquot of the incubation sample was removed and quenched in 100 μL of acetonitrile. At the end of the incubation, the quenched samples were vortexed and centrifuged for 10 min at 4°C and 20,000 × g. The resulting supernatant was reconstituted and analyzed by LC-MS/MS.
(§6) Table S2. Stability half-life of agents reported in Table 1 after incubation at 37 °C in various media. Acq represents aqueous buffer composed of 1x phosphate buffered saline (Fisher Scientific, Fair Lawn, NJ); human represents human plasma (Innovative Research Inc., Novi, MI); mouse wt represents wild type mouse plasma (Innovative Research Inc., Novi, MI); mouse ES1e represents plasma form esterase deficient mice (City of Hope, Duarte, CA); mouse B6-Cg represents plasma from black 6-Cg mice (City of Hope, Duarte, CA). See Figure 1 for the chemical structures of these compounds.
(§7) Compound Acq Human Mouse Mouse ES1e Mouse

[4] = biological target: T2, Pin1 in KPC cells (Mus musculus, UniProt Q9QUR7); assay: Pin1 degradation by western blot in KPC cells; format: cell-based; settings: 0.5-15 μM for 24 h, Pin1 relative to β-actin
T2 construct: endogenous in cells; host or cells: KPC
Method: as §1, §2, §3

[5] = Stability in plasma from Black 6-Cg mice; format: in vitro ADME; settings: Black 6-Cg (B6-Cg), mouse, 37°C, up to 6 h, acetonitrile quench, LC-MS/MS
Method: as §4, §5, §6, §7

[6] = Wild-type mouse plasma stability; format: in vitro ADME; settings: 37°C, up to 6 h, acetonitrile quench, LC-MS/MS, value given in h, read-out: Stability half-life, Mouse WT (converted)
Method: as §4, §5, §6, §7

T1 sequence (Q13526 whole entry): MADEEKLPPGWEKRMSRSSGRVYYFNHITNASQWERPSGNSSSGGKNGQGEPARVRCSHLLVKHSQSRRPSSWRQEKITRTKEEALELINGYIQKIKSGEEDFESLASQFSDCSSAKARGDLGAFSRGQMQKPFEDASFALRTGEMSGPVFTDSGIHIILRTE
Sequence of Pin1 in BxPC3 cells (Q13526 whole entry): as above
T2 sequence (Q9QUR7 whole entry): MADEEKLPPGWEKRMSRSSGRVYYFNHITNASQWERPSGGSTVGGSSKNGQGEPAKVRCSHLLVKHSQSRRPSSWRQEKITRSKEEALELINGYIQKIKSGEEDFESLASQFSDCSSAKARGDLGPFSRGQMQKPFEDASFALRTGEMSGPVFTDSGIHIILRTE

CNC(=O)[C@H](Cc1c[nH]c2ccccc12)NC(=O)[C@@H]1CCCCN1C(=O)[C@H](Cc1c[nH]c2cc(Cl)ccc12)NC(=O)CCl [164B8] (ClAc-[Trp(6-Cl)]-[Pip]-Trp-NHMe)
DC50 of Pin1 degradation [1]: sub-micromolar | DC50 of Pin1 degradation [2]: sub-micromolar | half-life at 1 μg/mL [3]: > 5 h | DC50 of Pin1 degradation [4]: sub-micromolar | half-life at 1 μg/mL [5]: > 5 h | half-life at 1 μg/mL [6]: ~4.5 h
